Measured values reported in US7482374B2, “Pyrrolidine-2-ones as Factor Xa inhibitors” (Glaxo Group Limited, priority 2003, dated 2009).
Counter-ions that a name gives are not always drawn.

Target: T1, human Factor Xa (Homo sapiens, UniProt P00742)
T1 construct: containing human Factor Xa (final conc. Of 0.0003 U·ml−1)
Assay: In vitro assay for inhibition of Factor Xa (fluorogenic assay, Rhodamine 110 bis-CBZ-glycylglycyl-L-arginine amide substrate)
Assay type: biochemical
Settings: Ki = IC50/1.6; 15 min preincubation, substrate 10 μM, room temperature, pH 7.4
Protocol: In Vitro Assay for Inhibition of Factor Xa
Compounds of the present invention were tested for their Factor Xa inhibitory activity as determined in vitro by their ability to inhibit human Factor Xa in a fluorogenic assay, using Rhodamine 110, bis-CBZ-glycylglycyl-L-arginine amide as the fluorogenic substrate. Compounds were diluted from a 10 mM stock solution in dimethylsulfoxide at appropriate concentrations. Assay was performed at room temperature using buffer consisting of: 50 mM Tris-HCl, 150 mM NaCl, 5 mM CaCl2, pH 7.4. containing human Factor Xa (final conc. Of 0.0003 U·ml−1). Compound and enzyme were preincubated for 15 min prior to addition of the substrate (final conc. of 10 μM). The reaction was stopped after 3 hrs with the addition of H-D-Phe-Pro-Arg-Chloromethylketone. An LJL-Analyst fluorimeter was used to monitor fluorescence with 485 nm excitation/535 nm emission. To obtain IC50 values the data were analysed using ActivityBase® and XLfit®.
Calculation of Ki Values: Ki=IC50/(1+[Substrate]/Km)
The Ki value for the above assay can be obtained by dividing the IC50 value by 1.6.

T1 sequence (P00742 235-488 limits assumed): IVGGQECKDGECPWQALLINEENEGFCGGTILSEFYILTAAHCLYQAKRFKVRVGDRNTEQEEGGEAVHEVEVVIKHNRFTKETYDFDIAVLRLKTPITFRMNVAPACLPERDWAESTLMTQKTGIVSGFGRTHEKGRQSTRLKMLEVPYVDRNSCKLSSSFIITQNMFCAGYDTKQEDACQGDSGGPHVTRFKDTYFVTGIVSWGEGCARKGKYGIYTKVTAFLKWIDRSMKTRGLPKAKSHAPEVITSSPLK
T1 sequence (P00742 41-179 partner limits assumed): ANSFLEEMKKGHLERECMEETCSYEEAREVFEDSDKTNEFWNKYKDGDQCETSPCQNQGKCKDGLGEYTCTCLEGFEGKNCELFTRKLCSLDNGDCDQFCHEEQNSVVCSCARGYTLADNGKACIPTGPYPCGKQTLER

Structure (SMILES) | Ki
C/C(=C\S(=O)(=O)NC1CCN(c2ccc(-n3ccnc3CN3CCC(F)C3)cc2F)C1=O)c1ccc(Cl)s1 (centres unmarked) [Example 5, (1E)-2-(5-Chloro-2-thienyl)-N-[1-(2-fluoro-4-{2-[(3-fluoro-1-pyrrolidinyl)methyl]-1H-imidazol-1-yl}phenyl)-2-oxo-3-pyrrolidinyl]-1-propene-1-sulfonamide formate] | < 10 nM
O=C1C(NS(=O)(=O)c2cc3ccc(Cl)cc3s2)CCN1c1ccc(-n2ccnc2CN2CCC(F)C2)cc1F (centres unmarked) [Example 6, 6-Chloro-N-[1-(2-fluoro-4-{2-[(3-fluoro-1-pyrrolidinyl)methyl]-1H-imidazol-1-yl}phenyl)-2-oxo-3-pyrrolidinyl]-1-benzothiophene-2-sulfonamide formate] | < 10 nM
COC1CN(Cc2nccn2-c2ccc(N3CCC(NS(=O)(=O)c4cc5ccc(Cl)cc5s4)C3=O)c(F)c2)C1 (centres unmarked) [Example 7, 6-Chloro-N-{1-[2-fluoro-4-(2-{[3-(methyloxy)-1-azetidinyl]methyl}-1H-imidazol-1-yl)phenyl]-2-oxo-3-pyrrolidinyl}-1-benzothiophene-2-sulfonamide formate] | < 10 nM

Further lines, results first:

Ki | Structure (SMILES)
< 10 nM | O=C1C(NS(=O)(=O)CCc2ccc(Cl)s2)CCN1c1ccc(-n2ccnc2CN2CCC2)cc1F (centres unmarked) [Example 2, N-(1-{4-[2-(1-Azetidinylmethyl)-1H-imidazol-1-yl]-2-fluorophenyl}-2-oxo-3-pyrrolidinyl)-2-(5-chloro-2-thienyl)ethanesulfonamide formate]
< 10 nM | C/C(=C\S(=O)(=O)NC1CCN(c2ccc(-n3ccnc3CN3CCC3)cc2F)C1=O)c1ccc(Cl)s1 (centres unmarked) [Example 1, (1E)-N-(1-{4-[2-(1-Azetidinylmethyl)-1H-imidazol-1-yl]-2-fluorophenyl}-2-oxo-3-pyrrolidinyl)-2-(5-chloro-thienyl)-1-propene-1-sulfonamide formate]
